Laboratory results as given in US4298375A, “2-Substituted-5-phenyl-4-thiazolecarboxylic acids and their derivatives as safening agents” (Monsanto Company, priority 1979, dated 1981).

Assays:
Assay type in all cases: in vivo
Green Foxtail = test: Example 6: herbicidal effect on weed (Green Foxtail) of alachlor with or without safening agent, soil treated with mixture, approximately 21 days
Description: (§1) A good grade of top soil was placed in a plastic pot and compacted to a depth of approximately 1.27 cm. from the top of said pot. A predetermined number of sorghum seeds and weed seeds were placed on top of the soil. A cover layer, approximately 1.27 cm., was placed on top of said seeds. The soil was then treated with a mixture of the safening agent and alachlor dispersed or dissolved in a suitable solvent. For each test series, pots were treated with only the herbicide. Additionally, pots were treated with only the safening agent. The herbicidal effect was observed approximately 21 days after treatment. Table IV summarizes the results obtained when the compounds of the invention were tested in accordance with the procedure of Example 6. Note that in each test a control is used in which the sorghum plants are treated with various rates of alachlor herbicide alone.

sorghum [1] = test: Example 6: herbicidal effect on sorghum of alachlor with or without safening agent, soil treated with mixture, approximately 21 days; conditions: for safening when tested in accordance with the procedure of Example 6: alachlor
Description: as §1

sorghum [2] = test: Example 5: safening against triallate, alachlor or butachlor, safener and herbicide incorporated in soil, greenhouse, approximately 21 days; parameters: key: (herbicide alone + safener alone, capped at 100) minus combination effect; conditions: safening agent 8.96 kg/h
Description: A good grade of top soil is placed in a container and compacted to a depth of approximately 1.27 cm. from the top of said container. A predetermined number of sorghum seeds to be tested are placed on top of the soil. A quantity of soil sufficient to substantially fill the container is measured and placed in a second container. A measured quantity of the safening agent dispersed or dissolved in a suitable carrier is applied to the soil in the second container. A measured quantity of triallate, alachlor or butachlor herbicide dispersed or dissolved in a suitable carrier is then sprayed on the soil already treated with the safening agent. The soil containing the safening agent and the herbicide is thoroughly mixed. This mixing is sometimes referred to as incorporation of the herbicide and safening agent into the soil. The mixing or incorporation provides a substantially uniform distribution of the safening agent and herbicide throughout the soil. The sorghum seeds are covered with the soil containing the safening agent and herbicide and the pans are leveled. The pans are then placed on a sand bench in the greenhouse and watered from below as needed. The sorghum plants are observed at the end of approximately 21 days and the results in terms of percent inhibition of each seed lot are recorded. For each test series a pan of plants is also prepared containing no herbicide and no safening agent as a control. Additionally, for each test, a pan of plants is prepared with soil covering the seed containing no herbicide and only the measured amount of safening agent being incorporated into the soil covering the seeds to ascertain any herbicidal effect of the safening agent alone. For each series of tests the herbicidal effect of the herbicide is observed from pans of sorghum plants tested with the same quantity of herbicide alone. The "safening effect" is determined by adding the herbicidal effect of the herbicide when applied alone to the herbicidal effect of the safening agent when applied alone (in no instance, however, will this sum be greater than 100) and subtracting from that the herbicidal effect obtained when the herbicide and safening agent are incorporated into the soil as discussed above.

[3] = alachlor alone 0.56 kg/h, no safening agent, first test
[4] = alachlor alone 0.56 kg/h, no safening agent, second test
[5] = alachlor alone 1.12 kg/h, no safening agent, first test
[6] = alachlor alone 1.12 kg/h, no safening agent, second test
[7] = alachlor alone 2.24 kg/h, no safening agent, first test
[8] = alachlor alone 2.24 kg/h, no safening agent, second test
[9] = alachlor alone 4.48 kg/h, no safening agent, first test
[10] = alachlor alone 4.48 kg/h, no safening agent, second test
[11] = alachlor 2.24 kg/h, (herbicide alone + safener alone) minus combination
[12] = butachlor 6.72 kg/h, (herbicide alone + safener alone) minus combination
[13] = triallate 0.56 kg/h, (herbicide alone + safener alone) minus combination
[14] = safening agent 8.96 kg/h + alachlor 0.56 kg/h
[15] = safening agent 8.96 kg/h + alachlor 1.12 kg/h
[16] = safening agent 8.96 kg/h + alachlor 2.24 kg/h
[17] = safening agent 8.96 kg/h + alachlor 4.48 kg/h
[18] = safening agent 8.96 kg/h alone, alachlor 0.00 kg/h
[19] = butachlor 6.72 kg/h, value given as symbol *
[20] = safening agent 9.96 kg/h (so in the source) + alachlor, rate not printed on this line (line below 4.48 kg/h)

Row | SMILES | Safening Effect (sorghum [2]; [11]) | Safening Effect (sorghum [2]; [12]) | Safening Effect (sorghum [2]; [13]) | safening when tested in accordance with the procedure of Example 6 (sorghum [1]) | % Inhibition Green Foxtail (Green Foxtail; [14]) | % Inhibition Green Foxtail (Green Foxtail; [15]) | % Inhibition Green Foxtail (Green Foxtail; [17]) | % Inhibition Green Foxtail (Green Foxtail; [18]) | % Inhibition Sorghum (sorghum [1]; [14]) | % Inhibition Sorghum (sorghum [1]; [15]) | % Inhibition Sorghum (sorghum [1]; [17]) | % Inhibition Sorghum (sorghum [1]; [18]) | Safening Effect (sorghum [2]; [19]) | also measured
1 | CCc1cccc(CC)c1N(COC)C(=O)CCl [Alachlor, 2-chloro-2',6'-diethyl-N-(methoxymethyl)acetanilide, reference compound] | – | – | – | – | – | – | – | – | – | – | – | – | – | % Inhibition Green Foxtail (Green Foxtail; [3]): 98%; % Inhibition Green Foxtail (Green Foxtail; [4]): 98%; % Inhibition Green Foxtail (Green Foxtail; [5]): 99%; % Inhibition Green Foxtail (Green Foxtail; [6]): 98%; % Inhibition Green Foxtail (Green Foxtail; [7]): 100%; % Inhibition Green Foxtail (Green Foxtail; [8]): 98%; % Inhibition Green Foxtail (Green Foxtail; [9]): 100%; % Inhibition Green Foxtail (Green Foxtail; [10]): 100%; % Inhibition Sorghum (sorghum [1]; [3]): 80%; % Inhibition Sorghum (sorghum [1]; [4]): 80%; % Inhibition Sorghum (sorghum [1]; [5]): 85%; % Inhibition Sorghum (sorghum [1]; [6]): 85%; % Inhibition Sorghum (sorghum [1]; [7]): 90%; % Inhibition Sorghum (sorghum [1]; [8]): 85%; % Inhibition Sorghum (sorghum [1]; [9]): 95%; % Inhibition Sorghum (sorghum [1]; [10]): 100%
2 | COC(=O)c1nc(N)sc1-c1ccccc1 [Example 1, Methyl 2-Amino-5-Phenyl-4-Thiazolecarboxylate] | 24 | 35 | 56 | no significant safenin | – | – | – | – | – | – | – | – | – | –
3 | COC(=O)c1nc(Cl)sc1-c1ccccc1 [Example 2, Methyl 2-Chloro-5-Phenyl-4-Thiazolecarboxylate] | 20 | 40 | 45 | – | 100% | 100% | 100% | 0% | 30% | 65% | 70% | 0% | – | % Inhibition Green Foxtail (Green Foxtail; [16]): 100%; % Inhibition Sorghum (sorghum [1]; [16]): 70%
4 | COC(=O)c1nc(OC)sc1-c1ccccc1 [Example 3, Methyl 2-Methoxy-5-Phenyl-4-Thiazolecarboxylate] | 23 | – | 37 | – | 100% | 100% | 100% | 0% | 50% | 65% | 40% | 0% | * (Observed safening effect was less than 19.) | % Inhibition Green Foxtail (Green Foxtail; [20]): 100%; % Inhibition Sorghum (sorghum [1]; [20]): 75%
5 | COC(=O)c1nc(Sc2ccccc2)sc1-c1ccccc1 [Example 4, Methyl 5-Phenyl-2-Phenylthio-4-Thiazolecarboxylate] | 20 | – | 35 | no significant safenin | – | – | – | – | – | – | – | – | * (Observed safening effect was less than 19.) | –
